EC50 data for 29 molecules are collected here from patent publication US12570642B2, “GLP-IR modulating compounds” (Gilead Sciences, Inc., priority 2021, dated 2026).

The structures appear in SMILES notation.

For the assay, the target named is GLP-1R (Homo sapiens, UniProt P43220). Nature of the assay: GLP-1R Activation - cAMP Assay. Type of assay: cell-based. The note with it: cAMP increase in CHO cells stably expressing GLP-1R; each compound run on one of the two cAMP assays (Assay 1 or Assay 2, not specified). A digest of the protocol: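 CHO cells stably expressing GLP-1R, plated at 1,000 cells/well overnight, then equilibrated 1 h in HBSS with 20 mM Hepes and 0.1% BSA. Agonist added as 10-point dose response for 30 min at 37 °C. cAMP measured by HTRF (Cisbio Gs Dynamic kit); EC50 from sigmoidal fit.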
GLP-1R, sequence (P43220 24-463): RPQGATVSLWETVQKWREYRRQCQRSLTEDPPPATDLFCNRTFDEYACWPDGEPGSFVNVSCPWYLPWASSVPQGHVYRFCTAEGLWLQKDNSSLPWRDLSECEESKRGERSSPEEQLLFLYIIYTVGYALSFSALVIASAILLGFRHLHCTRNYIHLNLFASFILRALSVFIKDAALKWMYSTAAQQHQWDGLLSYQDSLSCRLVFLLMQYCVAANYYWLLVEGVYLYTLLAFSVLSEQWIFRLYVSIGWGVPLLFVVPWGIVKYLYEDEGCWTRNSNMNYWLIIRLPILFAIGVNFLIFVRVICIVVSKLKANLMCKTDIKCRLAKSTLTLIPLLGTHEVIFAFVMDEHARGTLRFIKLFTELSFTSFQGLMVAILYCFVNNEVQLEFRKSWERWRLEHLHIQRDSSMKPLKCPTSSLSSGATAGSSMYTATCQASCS
(In general: Changes in cAMP serve as a functional read-out for many G protein-coupled receptors.)
As a reminder, the EC50 is the concentration at which the effect is half-maximal. Read a low EC50 as an effect from little substance. The molecule `COc1cc(-c2cnn(C)c2)ncc1COc1cccc(-c2cc(F)c(Cc3nc4ccc(C(=O)O)cc4n3C[C@@H](C)OC)cc2F)n1` [Example 91, (R)-2-(2,5-difluoro-4-(6-((4-methoxy-6-(1-methyl-1H-pyrazol-4-yl)pyridin-3-yl)methoxy)pyridin-2-yl)benzyl)-1-(2-methoxypropyl)-1H-benzo[d]imidazole-6-carboxylic Acid] registered a concentration for a half-maximal effect (EC50) of 2.06 nM.

`CC1(C)COCC1n1c(Cc2cc(F)c(-c3cccc(OCc4ccc(Cl)nc4)n3)cc2F)nc2ccc(C(=O)O)cc21` (centres unmarked) [Example 92] displayed a 50% effective concentration (EC50) of 0.13 nM. Compared with the last molecule, the EC50 is about 16-fold lower.

Molecule `CC1(C)COCC1n1c(Cc2cc(F)c(-c3cccc(OCc4cnc(Cl)cn4)n3)cc2F)nc2ccc(C(=O)O)cc21` (centres unmarked) [Example 93, 2-(4-(6-((5-chloropyrazin-2-yl)methoxy)pyridin-2-yl)-2,5-difluorobenzyl)-1-(4,4-dimethyltetrahydrofuran-3-yl)-1H-benzo[d]imidazole-6-carboxylic Acid] displayed an EC50 of 0.35 nM.

As for `COCCn1c(Cc2cc(F)c(-c3cccc(OCc4cnc(C(F)F)cn4)n3)cc2F)nc2ccc(C(=O)O)cc21` [Example 94], the midpoint of the response, the EC50, lay at 23.9 nM.

Regarding `COCCn1c(Cc2cc(F)c(-c3cccc(OCc4ccc(-n5ccnc5)nc4)n3)cc2F)nc2ccc(C(=O)O)cc21` [Example 95, 2-(4-(6-((6-(1H-imidazol-1-yl)pyridin-3-yl)methoxy)pyridin-2-yl)-2,5-difluorobenzyl)-1-(2-methoxyethyl)-1H-benzo[d]imidazole-6-carboxylic Acid], the 50% effective concentration (EC50) stood at 0.97 nM. This EC50 is about 25-fold lower than that of the molecule before.

`COCCn1c(Cc2cc(F)c(-c3cccc(OCc4ccc(C(C)(F)F)cc4)n3)cc2F)nc2ccc(C(=O)O)cc21` [Example 96, 2-(4-(6-((4-(1,1-difluoroethyl)benzyl)oxy)pyridin-2-yl)-2,5-difluorobenzyl)-1-(2-methoxyethyl)-1H-benzo[d]imidazole-6-carboxylic Acid] came in with a concentration giving a half-maximal response (EC50) of 0.98 nM.

For `COCCn1c(Cc2ccc(-c3cccc(OCc4ccc(C#N)cc4F)n3)c3c2COC3)nc2ccc(C(=O)O)cc21` [Example 97], the EC50 was found to be 21.2 nM.

Molecule `COCCOCCOCCn1cc(-c2ccc(COc3cccc(-c4cc(F)c(Cc5nc6ccc(C(=O)O)cc6n5CCOC)cc4F)n3)c(F)c2)cn1` [Example 98] yielded a concentration giving a half-maximal response (EC50) of 1.43 nM.

Regarding `COCCn1c(Cc2cc(F)c(-c3cccc(OCc4ccc(-c5cn(C)nn5)cc4F)n3)cc2F)nc2ccc(C(=O)O)cc21` [Example 99, 2-(2,5-difluoro-4-(6-((2-fluoro-4-(1-methyl-1H-1,2,3-triazol-4-yl)benzyl)oxy)pyridin-2-yl)benzyl)-1-(2-methoxyethyl)-1H-benzo[d]imidazole-6-carboxylic Acid], the concentration giving a half-maximal response (EC50) was 0.6 nM.

Turning to `COCCn1c(Cc2cc(F)c(-c3cccc(OCc4ccc(-c5cnn(C(F)F)c5)cc4F)n3)cc2F)nc2ccc(C(=O)O)cc21` [Example 100, 2-(4-(6-((4-(1-(difluoromethyl)-1H-pyrazol-4-yl)-2-fluorobenzyl)oxy)pyridin-2-yl)-2,5-difluorobenzyl)-1-(2-methoxyethyl)-1H-benzo[d]imidazole-6-carboxylic Acid], the EC50 stood at 0.45 nM.

As to `COCCn1c(Cc2cc(F)c(-c3cccc(OCc4ccc(-c5ccnn5C)cc4F)n3)cc2F)nc2ccc(C(=O)O)cc21` [Example 101, 2-(2,5-difluoro-4-(6-((2-fluoro-4-(1-methyl-1H-pyrazol-5-yl)benzyl)oxy)pyridin-2-yl)benzyl)-1-(2-methoxyethyl)-1H-benzo[d]imidazole-6-carboxylic Acid], the EC50 was determined as 1.46 nM.

The molecule `COCCn1c(Cc2cc(F)c(-c3cccc(OCc4ccc(-c5cc(C(F)(F)F)nn5C)cc4F)n3)cc2F)nc2ccc(C(=O)O)cc21` [Example 102, 2-(2,5-difluoro-4-(6-((2-fluoro-4-(1-methyl-3-(trifluoromethyl)-1H-pyrazol-5-yl)benzyl)oxy)pyridin-2-yl)benzyl)-1-(2-methoxyethyl)-1H-benzo[d]imidazole-6-carboxylic Acid] yielded a 50% effective concentration (EC50) of 22.8 nM. This EC50 is about 16-fold higher than that of the molecule before.

Consider `COCCn1c(Cc2cc(F)c(-c3cccc(OCc4ccc(-c5cccnc5)cc4F)n3)cc2F)nc2ccc(C(=O)O)cc21` [Example 103, 2-(2,5-difluoro-4-(6-((2-fluoro-4-(pyridin-3-yl)benzyl)oxy)pyridin-2-yl)benzyl)-1-(2-methoxyethyl)-1H-benzo[d]imidazole-6-carboxylic Acid], for which the EC50 stood at 1.23 nM.

In the case of `COCCn1c(Cc2cc(F)c(-c3cccc(OCc4ccc(-c5cccnc5C)cc4F)n3)cc2F)nc2ccc(C(=O)O)cc21` [Example 104, 2-(2,5-difluoro-4-(6-((2-fluoro-4-(2-methylpyridin-3-yl)benzyl)oxy)pyridin-2-yl)benzyl)-1-(2-methoxyethyl)-1H-benzo[d]imidazole-6-carboxylic Acid], the EC50 is 41.3 nM.

`COCCn1c(Cc2cc(F)c(-c3cccc(OCc4ccc(-c5ccc(C)nc5)cc4F)n3)cc2F)nc2ccc(C(=O)O)cc21` [Example 105, 2-(2,5-difluoro-4-(6-((2-fluoro-4-(6-methylpyridin-3-yl)benzyl)oxy)pyridin-2-yl)benzyl)-1-(2-methoxyethyl)-1H-benzo[d]imidazole-6-carboxylic Acid] came in with an EC50 of 1.55 nM.

`COCCn1cc(-c2ccc(COc3cccc(-c4cc(F)c(Cc5nc6ccc(C(=O)O)cc6n5CCOC)cc4F)n3)c(F)c2)cn1` [Example 106, 2-(2,5-difluoro-4-(6-((2-fluoro-4-(1-(2-methoxyethyl)-1H-pyrazol-4-yl)benzyl)oxy)pyridin-2-yl)benzyl)-1-(2-methoxyethyl)-1H-benzo[d]imidazole-6-carboxylic Acid] returned an EC50 of 2.22 nM.

`COCCn1c(Cc2cc(F)c(-c3cccc(OCc4ccc(-c5cn(C)nn5)nc4)n3)cc2F)nc2ccc(C(=O)O)cc21` [Example 107, 2-(2,5-difluoro-4-(6-((6-(1-methyl-1H-1,2,3-triazol-4-yl)pyridin-3-yl)methoxy)pyridin-2-yl)benzyl)-1-(2-methoxyethyl)-1H-benzo[d]imidazole-6-carboxylic Acid] displayed a concentration for a half-maximal effect (EC50) of 1.4 nM.

The molecule `COCCn1c(Cc2cc(F)c(-c3cccc(OCc4ccc(-c5cnn(C)c5)nc4)n3)cc2F)nc2ccc(C(=O)O)cc21` [Example 108, 2-(2,5-difluoro-4-(6-((6-(1-methyl-1H-pyrazol-4-yl)pyridin-3-yl)methoxy)pyridin-2-yl)benzyl)-1-(2-methoxyethyl)-1H-benzo[d]imidazole-6-carboxylic Acid] displayed a concentration for a half-maximal effect (EC50) of 3.28 nM.

`COCCn1c(Cc2cc(F)c(-c3cccc(OCc4ccc(-c5cnn(C(F)F)c5)nc4)n3)cc2F)nc2ccc(C(=O)O)cc21` [Example 109, 2-(4-(6-((6-(1-(difluoromethyl)-1H-pyrazol-4-yl)pyridin-3-yl)methoxy)pyridin-2-yl)-2,5-difluorobenzyl)-1-(2-methoxyethyl)-1H-benzo[d]imidazole-6-carboxylic Acid] yielded a concentration for a half-maximal effect (EC50) of 2.51 nM.

Take `COCCn1c(Cc2cc(F)c(-c3cccc(OCc4ccc(-c5ccnn5C)nc4)n3)cc2F)nc2ccc(C(=O)O)cc21` [Example 110, 2-(2,5-difluoro-4-(6-((6-(1-methyl-1H-pyrazol-5-yl)pyridin-3-yl)methoxy)pyridin-2-yl)benzyl)-1-(2-methoxyethyl)-1H-benzo[d]imidazole-6-carboxylic Acid]: the half-maximal effective concentration (EC50) was determined as 4.93 nM.

The molecule `C#Cc1ccc(COc2cccc(-c3cc(F)c(Cc4nc5ccc(C(=O)O)cc5n4CCOC)cc3F)n2)c(F)c1` [Example 111] registered an EC50 of 1.46 nM.

Consider `COCCn1c(Cc2cc(F)c(-c3cccc(OCc4ccc(-c5ncnn5C)cc4F)n3)cc2F)nc2ccc(C(=O)O)cc21` [Example 112], for which a half-maximal response (EC50) required 23 nM.

`COCCn1c(Cc2cc(F)c(-c3cccc(OCc4ccc(-c5cncn5C)cc4F)n3)cc2F)nc2ccc(C(=O)O)cc21` [Example 113] showed an EC50 of 11 nM. Against the preceding molecule, the EC50 is about 2.1-fold lower.

The molecule `COCCn1c(Cc2cc(F)c(-c3cccc(OCc4ccc(-c5cnn(CC(F)F)c5)cc4F)n3)cc2F)nc2ccc(C(=O)O)cc21` [Example 114] displayed an EC50 of 5.99 nM.

Take `CC1(C)COC[C@H]1n1c(Cc2cc(F)c(-c3ccc(F)c(OCc4ccc(C#N)cc4F)n3)cc2F)nc2c(F)cc(C(=O)O)cc21` [Example 116, 2-[[4-[6-[(4-cyano-2-fluoro-phenyl)methoxy]-5-fluoro-2-pyridyl]-2,5-difluoro-phenyl]methyl]-3-[(3S)-4,4-dimethyltetrahydrofuran-3-yl]-7-fluorobenzimidazole-5-carboxylic Acid]: the 50% effective concentration (EC50) was 0.005 nM.

The molecule `CC1(C)COC[C@H]1n1c(Cc2cc(F)c(-c3cccc(OCc4cnc(-n5ccnn5)cc4Cl)n3)cc2F)nc2ccc(C(=O)O)cc21` [Example 118, (S)-2-(4-(6-((4-chloro-6-(1H-1,2,3-triazol-1-yl)pyridin-3-yl)methoxy)pyridin-2-yl)-2,5-difluorobenzyl)-1-(4,4-dimethyltetrahydrofuran-3-yl)-1H-benzo[d]imidazole-6-carboxylic Acid] returned a half-maximal effective concentration (EC50) of 0.053 nM.

Consider `CC1(C)COC[C@H]1n1c(Cc2c(F)cc(-c3cccc(OCc4ccc(C#N)cc4F)n3)c(F)c2F)nc2ccc(C(=O)O)cc21` [Example 120, (S)-2-(4-(6-((4-cyano-2-fluorobenzyl)oxy)pyridin-2-yl)-2,3,6-trifluorobenzyl)-1-(4,4-dimethyltetrahydrofuran-3-yl)-benzimidazole-6-carboxylic Acid], for which the midpoint of the response, the EC50, lay at 0.101 nM.

Molecule `CC1(C)COC[C@H]1n1c(Cc2cc(F)c(-c3ccnc(OCc4ccc(Cl)cc4F)n3)cc2F)nc2ccc(C(=O)O)cc21` [Example 121, (S)-2-(4-(2-((4-chloro-2-fluorobenzyl)oxy)pyrimidin-4-yl)-2,5-difluorobenzyl)-1-(4,4-dimethyltetrahydrofuran-3-yl)-1H-benzo[d]imidazole-6-carboxylic Acid] returned an EC50 of 0.083 nM.

Molecule `CC1(C)COCC1n1c(Cc2c(F)cc(-c3cccc(OCc4ccc(C#N)cc4F)n3)c(F)c2F)nc2c(F)cc(C(=O)O)cc21` (centres unmarked) [Example 122, 2-(4-(6-((4-cyano-2-fluorobenzyl)oxy)pyridin-2-yl)-2,3,6-trifluorobenzyl)-1-(4,4-dimethyltetrahydrofuran-3-yl)-4-fluoro-1H-benzo[d]imidazole-6-carboxylic Acid] returned a 50% effective concentration (EC50) of 0.031 nM.
